Source: ChEMBL document CHEMBL5137065, “Recent Advances with KDM4 Inhibitors and Potential Applications” (J Med Chem, 2022)
Each block holds one compound with its values, some of them ahead of it. Positions of bridges follow the written chain, without caps; N, C: chain ends. Non-standard residues stand in square brackets, D forms with d. Residues, ends and D or L forms follow the SMILES beside them.

What was measured:
HL-60 = assay: Antiproliferative activity against human HL-60 cells; type: functional
KYSE-150 cell line = assay: Antiproliferative activity against human KYSE-150 cells; type: functional
[1] = molecular target: T1, Lysine-specific demethylase 4A (Homo sapiens, UniProt O75164); assay: Inhibition of KDM4A in human KYSE-150 cells assessed as increase in H3K9me3 level; type: cell-based, KYSE-150 cell line
T1 sequence (O75164 whole entry): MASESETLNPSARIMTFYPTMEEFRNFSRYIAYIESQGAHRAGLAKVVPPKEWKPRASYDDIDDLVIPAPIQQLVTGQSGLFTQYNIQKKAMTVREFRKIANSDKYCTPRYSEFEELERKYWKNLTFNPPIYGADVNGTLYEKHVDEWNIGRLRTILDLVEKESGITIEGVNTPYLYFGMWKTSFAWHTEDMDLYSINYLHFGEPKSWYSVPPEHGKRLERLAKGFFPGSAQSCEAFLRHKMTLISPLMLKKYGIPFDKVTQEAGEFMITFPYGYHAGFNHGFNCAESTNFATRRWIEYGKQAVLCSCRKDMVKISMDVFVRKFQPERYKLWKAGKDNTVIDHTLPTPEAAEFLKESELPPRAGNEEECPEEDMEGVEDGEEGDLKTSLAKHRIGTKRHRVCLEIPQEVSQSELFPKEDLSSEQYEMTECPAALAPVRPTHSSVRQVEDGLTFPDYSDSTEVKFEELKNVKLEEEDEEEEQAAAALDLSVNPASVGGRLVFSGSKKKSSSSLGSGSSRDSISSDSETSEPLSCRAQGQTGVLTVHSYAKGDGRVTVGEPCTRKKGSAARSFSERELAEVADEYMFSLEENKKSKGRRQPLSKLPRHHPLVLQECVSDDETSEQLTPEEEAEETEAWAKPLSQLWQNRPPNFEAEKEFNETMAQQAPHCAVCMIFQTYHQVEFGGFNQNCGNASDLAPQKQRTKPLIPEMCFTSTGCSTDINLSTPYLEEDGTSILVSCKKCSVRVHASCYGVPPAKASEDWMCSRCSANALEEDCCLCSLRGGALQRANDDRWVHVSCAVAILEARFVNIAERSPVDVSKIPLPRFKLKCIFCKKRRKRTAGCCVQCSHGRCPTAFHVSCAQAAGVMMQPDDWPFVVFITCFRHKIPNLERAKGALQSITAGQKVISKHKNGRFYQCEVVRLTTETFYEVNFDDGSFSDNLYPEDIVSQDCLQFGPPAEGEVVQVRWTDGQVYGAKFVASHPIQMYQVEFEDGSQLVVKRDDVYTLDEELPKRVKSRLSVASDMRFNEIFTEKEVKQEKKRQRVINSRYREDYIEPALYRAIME

[2] = molecular target: T1, Lysine-specific demethylase 4A
[3] = molecular target: T2, Lysine-specific demethylase 2A (Homo sapiens, UniProt Q9Y2K7); assay: Inhibition of KDM2A in human MIA PaCa-2 cells assessed as induction of H3K36me2 measured by immunofluorescence assay; type: cell-based
T2 sequence (Q9Y2K7 whole entry): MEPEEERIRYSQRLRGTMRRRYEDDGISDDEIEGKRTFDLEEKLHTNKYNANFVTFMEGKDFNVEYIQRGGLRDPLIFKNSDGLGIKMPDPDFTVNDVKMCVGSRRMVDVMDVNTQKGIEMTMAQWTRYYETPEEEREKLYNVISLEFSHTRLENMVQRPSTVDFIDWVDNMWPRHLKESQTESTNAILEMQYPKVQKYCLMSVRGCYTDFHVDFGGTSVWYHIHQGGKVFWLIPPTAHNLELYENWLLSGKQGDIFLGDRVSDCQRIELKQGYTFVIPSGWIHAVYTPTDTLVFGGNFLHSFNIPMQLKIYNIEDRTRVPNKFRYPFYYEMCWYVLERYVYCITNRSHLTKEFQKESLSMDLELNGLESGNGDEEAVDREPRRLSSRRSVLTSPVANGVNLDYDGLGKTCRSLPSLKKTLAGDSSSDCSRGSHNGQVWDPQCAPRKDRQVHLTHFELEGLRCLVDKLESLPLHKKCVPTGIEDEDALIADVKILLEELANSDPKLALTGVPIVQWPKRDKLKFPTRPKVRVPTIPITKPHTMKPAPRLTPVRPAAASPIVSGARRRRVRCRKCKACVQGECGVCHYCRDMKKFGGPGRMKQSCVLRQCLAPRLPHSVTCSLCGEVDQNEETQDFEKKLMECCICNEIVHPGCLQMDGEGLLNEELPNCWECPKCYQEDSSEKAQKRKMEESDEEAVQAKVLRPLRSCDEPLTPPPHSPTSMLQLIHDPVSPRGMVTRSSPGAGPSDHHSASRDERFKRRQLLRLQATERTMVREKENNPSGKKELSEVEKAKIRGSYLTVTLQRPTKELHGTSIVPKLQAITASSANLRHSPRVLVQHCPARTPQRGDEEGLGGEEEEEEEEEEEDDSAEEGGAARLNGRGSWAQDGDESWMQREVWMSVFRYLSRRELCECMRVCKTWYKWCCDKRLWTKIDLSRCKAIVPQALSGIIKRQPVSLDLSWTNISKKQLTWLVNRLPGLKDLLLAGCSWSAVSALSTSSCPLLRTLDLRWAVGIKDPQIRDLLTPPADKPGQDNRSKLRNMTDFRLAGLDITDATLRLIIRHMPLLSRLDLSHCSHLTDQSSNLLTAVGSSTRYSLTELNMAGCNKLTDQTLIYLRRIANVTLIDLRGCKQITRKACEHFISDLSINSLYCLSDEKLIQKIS

[4] = molecular target: T3, Lysine-specific demethylase 4C (Homo sapiens, UniProt Q9H3R0); assay: Inhibition of KDM4C (unknown origin) measured by AlphaScreen assay
T3 sequence (Q9H3R0 whole entry): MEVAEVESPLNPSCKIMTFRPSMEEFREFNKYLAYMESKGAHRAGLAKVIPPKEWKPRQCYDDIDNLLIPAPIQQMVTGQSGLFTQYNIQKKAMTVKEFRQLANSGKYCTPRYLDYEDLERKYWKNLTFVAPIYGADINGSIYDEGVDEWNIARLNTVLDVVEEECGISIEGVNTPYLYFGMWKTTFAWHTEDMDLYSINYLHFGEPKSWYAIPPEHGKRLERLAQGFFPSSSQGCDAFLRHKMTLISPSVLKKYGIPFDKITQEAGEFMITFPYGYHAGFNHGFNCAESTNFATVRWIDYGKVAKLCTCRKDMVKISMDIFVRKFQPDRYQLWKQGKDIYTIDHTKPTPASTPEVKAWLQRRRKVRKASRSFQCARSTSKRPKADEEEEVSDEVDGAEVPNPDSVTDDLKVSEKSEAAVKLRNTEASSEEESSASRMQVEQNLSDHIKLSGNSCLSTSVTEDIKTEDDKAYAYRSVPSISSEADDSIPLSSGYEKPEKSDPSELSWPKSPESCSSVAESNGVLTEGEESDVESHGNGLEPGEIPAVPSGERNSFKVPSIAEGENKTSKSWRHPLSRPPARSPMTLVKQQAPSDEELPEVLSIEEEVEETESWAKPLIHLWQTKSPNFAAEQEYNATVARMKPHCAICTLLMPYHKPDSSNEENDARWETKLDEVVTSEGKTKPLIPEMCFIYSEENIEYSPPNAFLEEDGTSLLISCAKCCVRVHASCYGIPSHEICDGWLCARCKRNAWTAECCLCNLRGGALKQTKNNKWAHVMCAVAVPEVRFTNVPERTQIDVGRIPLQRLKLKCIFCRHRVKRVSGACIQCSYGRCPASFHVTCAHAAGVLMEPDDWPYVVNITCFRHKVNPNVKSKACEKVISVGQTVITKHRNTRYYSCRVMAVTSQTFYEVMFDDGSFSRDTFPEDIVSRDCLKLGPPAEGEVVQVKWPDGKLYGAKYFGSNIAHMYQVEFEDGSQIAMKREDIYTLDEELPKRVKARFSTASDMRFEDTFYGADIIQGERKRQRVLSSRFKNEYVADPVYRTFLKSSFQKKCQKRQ

[5] = molecular target: T4, Lysine-specific demethylase 4B (Homo sapiens, UniProt O94953); assay: Inhibition of KDM4B (unknown origin) measured by AlphaScreen assay
T4 sequence (O94953 whole entry): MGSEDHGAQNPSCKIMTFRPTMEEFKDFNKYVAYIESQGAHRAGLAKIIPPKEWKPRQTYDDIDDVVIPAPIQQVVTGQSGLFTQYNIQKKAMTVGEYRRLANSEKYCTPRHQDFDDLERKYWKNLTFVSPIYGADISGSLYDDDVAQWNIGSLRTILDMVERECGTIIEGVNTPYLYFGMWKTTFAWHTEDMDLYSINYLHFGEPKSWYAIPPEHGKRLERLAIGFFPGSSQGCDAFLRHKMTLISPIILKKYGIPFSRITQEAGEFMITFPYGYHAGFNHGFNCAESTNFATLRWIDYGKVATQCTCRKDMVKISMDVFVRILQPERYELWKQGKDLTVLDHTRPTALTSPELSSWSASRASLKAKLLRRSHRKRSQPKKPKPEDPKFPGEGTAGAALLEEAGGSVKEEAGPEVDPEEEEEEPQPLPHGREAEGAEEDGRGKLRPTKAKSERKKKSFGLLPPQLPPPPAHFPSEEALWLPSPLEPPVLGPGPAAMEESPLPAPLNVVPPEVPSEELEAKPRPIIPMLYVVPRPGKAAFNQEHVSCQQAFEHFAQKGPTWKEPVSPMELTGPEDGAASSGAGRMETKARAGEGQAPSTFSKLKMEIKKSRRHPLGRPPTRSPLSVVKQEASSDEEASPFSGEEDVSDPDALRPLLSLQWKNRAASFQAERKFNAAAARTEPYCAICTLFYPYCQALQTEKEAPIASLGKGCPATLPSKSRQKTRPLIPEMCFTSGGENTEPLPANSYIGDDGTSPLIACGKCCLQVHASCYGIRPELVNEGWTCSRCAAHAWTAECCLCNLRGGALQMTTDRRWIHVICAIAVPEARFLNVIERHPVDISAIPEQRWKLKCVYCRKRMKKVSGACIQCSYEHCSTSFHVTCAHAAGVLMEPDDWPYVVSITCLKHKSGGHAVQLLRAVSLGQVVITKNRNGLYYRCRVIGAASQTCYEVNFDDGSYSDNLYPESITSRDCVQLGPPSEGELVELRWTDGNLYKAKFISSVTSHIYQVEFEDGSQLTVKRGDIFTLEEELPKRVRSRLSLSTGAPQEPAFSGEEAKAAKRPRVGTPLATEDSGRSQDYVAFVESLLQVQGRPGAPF

[6] = molecular target: Lysine-specific demethylase 5A (Homo sapiens, UniProt P29375); assay: Inhibition of KDM5A (unknown origin) measured by AlphaScreen assay
Sequence of Lysine-specific demethylase 5A (P29375 whole entry): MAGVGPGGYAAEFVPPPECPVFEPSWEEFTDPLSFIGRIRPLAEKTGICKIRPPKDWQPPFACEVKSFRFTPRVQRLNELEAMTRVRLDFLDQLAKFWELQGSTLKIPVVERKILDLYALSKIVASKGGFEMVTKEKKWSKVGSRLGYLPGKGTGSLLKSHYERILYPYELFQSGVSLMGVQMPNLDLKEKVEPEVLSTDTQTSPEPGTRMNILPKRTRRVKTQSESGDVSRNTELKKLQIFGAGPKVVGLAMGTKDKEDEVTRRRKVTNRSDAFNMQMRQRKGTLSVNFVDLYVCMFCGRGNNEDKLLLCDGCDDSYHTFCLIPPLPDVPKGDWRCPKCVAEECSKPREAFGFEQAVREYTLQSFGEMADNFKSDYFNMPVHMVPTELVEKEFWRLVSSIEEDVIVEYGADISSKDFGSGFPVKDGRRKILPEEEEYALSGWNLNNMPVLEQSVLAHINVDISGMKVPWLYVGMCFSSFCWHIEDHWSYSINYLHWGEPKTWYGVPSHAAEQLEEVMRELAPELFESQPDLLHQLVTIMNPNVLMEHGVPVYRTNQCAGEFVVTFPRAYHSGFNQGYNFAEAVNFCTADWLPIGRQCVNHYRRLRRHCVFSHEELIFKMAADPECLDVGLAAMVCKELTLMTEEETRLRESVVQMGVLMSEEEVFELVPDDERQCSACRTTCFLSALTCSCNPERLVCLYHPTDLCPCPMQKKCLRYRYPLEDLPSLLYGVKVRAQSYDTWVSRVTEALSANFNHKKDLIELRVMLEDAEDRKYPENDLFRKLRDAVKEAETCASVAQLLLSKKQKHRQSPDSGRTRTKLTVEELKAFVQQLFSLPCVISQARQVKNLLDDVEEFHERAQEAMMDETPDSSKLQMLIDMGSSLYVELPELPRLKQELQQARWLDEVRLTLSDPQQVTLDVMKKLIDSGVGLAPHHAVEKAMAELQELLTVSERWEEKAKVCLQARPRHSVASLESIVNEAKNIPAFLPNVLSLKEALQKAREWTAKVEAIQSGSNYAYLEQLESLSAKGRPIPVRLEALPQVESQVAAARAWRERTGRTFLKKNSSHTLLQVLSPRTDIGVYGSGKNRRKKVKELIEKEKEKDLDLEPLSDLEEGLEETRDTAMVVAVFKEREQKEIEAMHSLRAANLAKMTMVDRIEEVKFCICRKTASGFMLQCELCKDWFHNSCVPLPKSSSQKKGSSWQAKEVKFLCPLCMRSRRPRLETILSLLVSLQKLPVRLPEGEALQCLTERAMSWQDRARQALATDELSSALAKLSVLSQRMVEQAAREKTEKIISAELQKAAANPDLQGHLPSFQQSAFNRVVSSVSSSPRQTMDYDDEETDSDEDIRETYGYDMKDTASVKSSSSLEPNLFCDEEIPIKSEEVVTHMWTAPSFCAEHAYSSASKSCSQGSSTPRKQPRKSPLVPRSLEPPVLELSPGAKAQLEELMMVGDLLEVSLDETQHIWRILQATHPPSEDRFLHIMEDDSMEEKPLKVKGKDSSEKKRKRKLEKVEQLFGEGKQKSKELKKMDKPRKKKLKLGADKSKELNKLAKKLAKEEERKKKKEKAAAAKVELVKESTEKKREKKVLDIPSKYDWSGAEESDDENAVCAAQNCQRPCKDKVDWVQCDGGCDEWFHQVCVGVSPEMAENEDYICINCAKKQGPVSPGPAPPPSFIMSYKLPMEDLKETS

[7] = molecular target: Lysine-specific demethylase 6B (Homo sapiens, UniProt O15054); assay: Inhibition of KDM6B (unknown origin) measured by AlphaScreen assay
Sequence of Lysine-specific demethylase 6B (O15054 whole entry): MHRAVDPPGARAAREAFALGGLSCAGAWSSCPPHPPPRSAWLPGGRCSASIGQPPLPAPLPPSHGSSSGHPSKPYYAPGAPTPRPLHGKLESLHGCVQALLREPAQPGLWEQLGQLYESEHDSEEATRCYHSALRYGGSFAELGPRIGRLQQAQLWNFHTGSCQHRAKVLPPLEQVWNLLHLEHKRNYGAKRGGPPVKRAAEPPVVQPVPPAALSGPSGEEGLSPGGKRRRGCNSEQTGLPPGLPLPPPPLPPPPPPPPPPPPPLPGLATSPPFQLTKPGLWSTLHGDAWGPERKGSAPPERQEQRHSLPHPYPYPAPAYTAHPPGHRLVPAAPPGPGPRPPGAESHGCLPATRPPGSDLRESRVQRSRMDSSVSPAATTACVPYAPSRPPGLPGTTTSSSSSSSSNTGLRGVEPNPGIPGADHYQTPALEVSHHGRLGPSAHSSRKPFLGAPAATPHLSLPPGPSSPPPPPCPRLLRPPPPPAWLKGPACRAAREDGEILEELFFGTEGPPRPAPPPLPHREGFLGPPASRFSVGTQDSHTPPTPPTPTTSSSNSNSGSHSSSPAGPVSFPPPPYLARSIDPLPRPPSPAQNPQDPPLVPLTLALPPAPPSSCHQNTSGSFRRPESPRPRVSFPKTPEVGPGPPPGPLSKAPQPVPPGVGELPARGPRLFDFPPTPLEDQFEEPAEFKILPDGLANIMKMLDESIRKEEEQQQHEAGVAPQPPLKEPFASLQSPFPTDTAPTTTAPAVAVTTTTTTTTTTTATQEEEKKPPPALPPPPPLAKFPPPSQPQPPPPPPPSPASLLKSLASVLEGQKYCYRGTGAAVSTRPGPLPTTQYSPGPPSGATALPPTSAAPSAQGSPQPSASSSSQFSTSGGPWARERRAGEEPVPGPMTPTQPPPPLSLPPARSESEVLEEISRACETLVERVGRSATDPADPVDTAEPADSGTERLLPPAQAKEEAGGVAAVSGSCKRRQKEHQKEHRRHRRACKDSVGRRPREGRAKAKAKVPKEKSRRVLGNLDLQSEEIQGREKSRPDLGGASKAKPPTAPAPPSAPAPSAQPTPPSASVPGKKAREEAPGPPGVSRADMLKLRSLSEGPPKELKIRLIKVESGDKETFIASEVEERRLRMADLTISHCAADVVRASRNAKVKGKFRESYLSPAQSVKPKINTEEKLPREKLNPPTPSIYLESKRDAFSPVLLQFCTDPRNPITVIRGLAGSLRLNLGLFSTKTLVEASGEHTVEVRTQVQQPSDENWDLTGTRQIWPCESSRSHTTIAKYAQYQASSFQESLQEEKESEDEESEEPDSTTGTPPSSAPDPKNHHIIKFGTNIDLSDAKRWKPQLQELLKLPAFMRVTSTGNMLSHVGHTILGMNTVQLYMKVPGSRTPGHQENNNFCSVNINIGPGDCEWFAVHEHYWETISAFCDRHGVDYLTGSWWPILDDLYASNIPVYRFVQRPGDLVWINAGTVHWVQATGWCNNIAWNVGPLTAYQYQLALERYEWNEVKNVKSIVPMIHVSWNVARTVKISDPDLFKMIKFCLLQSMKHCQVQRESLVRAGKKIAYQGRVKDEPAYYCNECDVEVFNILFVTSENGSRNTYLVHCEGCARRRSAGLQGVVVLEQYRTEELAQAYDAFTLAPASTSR

[8] = molecular target: T1, Lysine-specific demethylase 4A; assay: Inhibition of KDM4A (unknown origin) measured by AlphaScreen assay
[9] = molecular target: T1, Lysine-specific demethylase 4A; assay: Inhibition of KDM4A (unknown origin) measured by LANCEUltra assay
[10] = molecular target: T1, Lysine-specific demethylase 4A; assay: Inhibition of KDM4A (unknown origin) measured by formaldehyde dehydrogenase (FDH)-coupled fluorescence assay

Compound: Oc1ccccc1-c1nc(-c2ccccc2O)n(-c2ccccc2)n1
- GI50 (HL-60): 1700 nM
- GI50 (KYSE-150 cell line): 450 nM
- EC50 [1]: 3300 nM

Compound: COC(=O)c1ccc(-n2nc(-c3ccccc3O)nc2-c2ccccc2O)cc1
- GI50 (HL-60): 1700 nM
- GI50 (KYSE-150 cell line): 450 nM
- EC50 [1]: 10000 nM

Compound: CCCCCC[n+]1ccccc1C=Cc1ccc(N(C)C)cc1
- IC50 [2]: 280 nM
- IC50 [3]: 280 nM

Compound: CO[C@H]1/C=C\C=C(/C)C(=O)NC2=CC(=O)C(NCCN(C)C)=C(C[C@@H](C)C[C@H](OC)[C@H](O)[C@@H](C)/C=C(\C)[C@@H]1OC(N)=O)C2=O (stereo in doubt) [ALVESPIMYCIN]
- IC50 [4]: 700 nM
- IC50 [5]: 700 nM
- IC50 [6]: 130 nM
- IC50 [7]: 400 nM

Compound: O=C(O)c1ccc(-n2nc(-c3ccccc3O)nc2-c2ccccc2O)cc1 [DEFERASIROX]
- IC50 [9]: 3330 nM
- GI50 (HL-60): 5500 nM
- GI50 (KYSE-150 cell line): 3300 nM
- IC50 [10]: 3220 nM
- EC50 [1]: 40500 nM

Compound: Cc1c(O)c(=O)ccn1C [DEFERIPRONE]
- IC50 [9]: 3330 nM
- IC50 [10]: 3220 nM

Other lines, results leading:

- IC50 [5]: 700 nM
- IC50 [6]: 130 nM
- IC50 [7]: 400 nM
Compound: C=CCNC1=C2C[C@@H](C)C[C@H](OC)[C@H](O)[C@@H](C)/C=C(\C)[C@H](OC(N)=O)[C@@H](OC)/C=C\C=C(/C)C(=O)NC(=CC1=O)C2=O (stereo in doubt) [TANESPIMYCIN]

- IC50 [8]: 6 nM
- IC50 [4]: 2.2 nM
Compound: CC[C@H](C)[C@@H]1NC(=O)CNC(=O)[C@H](CO)NC(=O)[C@H](CCCNC(=N)N)NC(=O)[C@H](CCCNC(=N)N)NC(=O)[C@H](Cc2ccccc2)NC(=O)[C@H](CCCNC(=N)N)NC(=O)[C@H]([C@@H](C)O)NC(=O)[C@@H](Cc2ccc(O)cc2)NC(=O)CSC[C@@H](C(N)=O)NC(=O)[C@H](Cc2ccc(O)cc2)NC(=O)[C@H](Cc2ccc(O)cc2)NC(=O)[C@H](Cc2ccccc2)NC(=O)[C@H](C(C)C)NC1=O ({CH2CO}-[dY]TRFRRSGIVFYYC-NH2; thioether N-14)

- IC50 [8]: 33 nM
- IC50 [4]: 33 nM
Compound: CC(C)[C@@H]1NC(=O)[C@@H](Cc2ccc(O)cc2)NC(=O)CSC[C@@H](C(N)=O)NC(=O)[C@H]([C@@H](C)O)NC(=O)[C@H](Cc2ccc(O)cc2)NC(=O)[C@H](Cc2c[nH]c3ccccc23)NC(=O)[C@H](CCCNC(=N)N)NC(=O)[C@H](Cc2c[nH]c3ccccc23)NC(=O)CNC(=O)[C@H](CO)NC(=O)[C@H](CCCNC(=N)N)NC(=O)[C@H]([C@@H](C)O)NC(=O)[C@H](CC(N)=O)NC(=O)[C@H](Cc2ccc(O)cc2)NC1=O ({CH2CO}-[dY]VYNTRSGWRWYTC-NH2; thioether N-14)

- IC50 [9]: 3330 nM
- IC50 [10]: 3220 nM
Compound: CC(=O)N(O)CCCCCNC(=O)CCC(=O)N(O)CCCCCNC(=O)CCC(=O)N(O)CCCCCN [DEFEROXAMINE]

- IC50 [4]: 700 nM
- IC50 [6]: 130 nM
- IC50 [7]: 400 nM
Compound: COC1=C2C[C@@H](C)C[C@H](OC)[C@H](O)[C@@H](C)/C=C(\C)[C@H](OC(N)=O)[C@@H](OC)/C=C\C=C(/C)C(=O)NC(=CC1=O)C2=O [GELDANAMYCIN]
